# In ChEMBL document CHEMBL3396963, “Scaffold hopping: exploration of acetanilide-containing uracil analogues as potential NNRTIs” (Bioorg Med Chem, 2015):
# pEC50, pIC50, pKi: −log10 of the molar value. The source made the active and inactive calls. The rule behind the calls is not given here.
# Biological target: T1, Human immunodeficiency virus type 1 reverse transcriptase (Human immunodeficiency virus 1, UniProt Q72547)
# Experiment: Inhibition of HIV1 recombinant wild type reverse transcriptase p66/p51 pre-incubated with compound before enzyme addition using poly(rA) template and measured after 40 mins by picogreen based spectrofluorometry
# Settings: not given
pKi,Compound,pIC50
< 4.00,Cn1c(=O)ccn(Cc2ccccc2OCC(=O)Nc2ccccc2)c1=O,–
< 4.00,Cn1c(=O)c(F)cn(Cc2ccccc2OCC(=O)Nc2ccccc2Cl)c1=O,–
–,Cc1cc(C)cc(Cn2c(=O)ccn(CC(=O)NCc3ccccc3)c2=O)c1,3.71
< 4.00,Cn1c(=O)ccn(Cc2ccccc2OCC(=O)Nc2ccccc2Cl)c1=O,–
–,COc1ccccc1NC(=O)Cn1ccc(=O)n(Cc2cc(C)cc(C)c2)c1=O,3.68
< 4.00,C=CCn1c(=O)ccn(Cc2ccccc2OCC(=O)Nc2ccccc2Cl)c1=O,–
–,Cc1cc(C)cc(Cn2c(=O)ccn(CC(=O)Nc3ccccc3)c2=O)c1,4.10
< 4.00,Cc1ccccc1NC(=O)COc1ccccc1Cn1ccc(=O)n(C)c1=O,–
–,Cc1cc(C)cc(Cn2c(=O)ccn(CC(=O)Nc3cccc(Cl)c3)c2=O)c1,3.94
–,Cc1cc(C)cc(Cn2c(=O)ccn(CC(=O)Nc3ccc(Cl)cc3)c2=O)c1,4.20

# Test system: not listed separately
# Experiment: Selectivity index, ratio of CC50 for human MT4 cells to EC50 for HIV1 3B infected in human MT4 cells
# Assay type: toxicity, cell-based
# Settings: HIV-1 3B infected MT4 cells, read-out: Ratio CC50/EC50
row,Compound,selectivity ratio
1,Cn1c(=O)ccn(Cc2ccccc2OCC(=O)Nc2ccccc2)c1=O,< 1
2,Cn1c(=O)c(F)cn(Cc2ccccc2OCC(=O)Nc2ccccc2Cl)c1=O,< 1
3,Cc1cc(C)cc(Cn2c(=O)ccn(CC(=O)NCc3ccccc3)c2=O)c1,< 1
4,Cn1c(=O)ccn(Cc2ccccc2OCC(=O)Nc2ccccc2Cl)c1=O,< 1
5,COc1ccccc1NC(=O)Cn1ccc(=O)n(Cc2cc(C)cc(C)c2)c1=O,16
6,C=CCn1c(=O)ccn(Cc2ccccc2OCC(=O)Nc2ccccc2Cl)c1=O,< 1
7,Cc1cc(C)cc(Cn2c(=O)ccn(CC(=O)Nc3ccccc3)c2=O)c1,25
8,Cc1ccccc1NC(=O)COc1ccccc1Cn1ccc(=O)n(C)c1=O,< 1
9,Cc1cc(C)cc(Cn2c(=O)ccn(CC(=O)Nc3cccc(Cl)c3)c2=O)c1,6
10,Cc1cc(C)cc(Cn2c(=O)ccn(CC(=O)Nc3ccc(Cl)cc3)c2=O)c1,11

# Test system: Human immunodeficiency virus 1
# Experiment: Antiviral activity against HIV1 3B infected in human MT4 cells assessed as inhibition of virus-induced cytopathogenic effect
# Assay type: functional, organism-based
# Settings: Human immunodeficiency virus 1, 3B
row,Compound,pEC50
1,Cn1c(=O)ccn(Cc2ccccc2OCC(=O)Nc2ccccc2)c1=O,< 3.82
2,Cn1c(=O)c(F)cn(Cc2ccccc2OCC(=O)Nc2ccccc2Cl)c1=O,< 4.52
3,Cc1cc(C)cc(Cn2c(=O)ccn(CC(=O)NCc3ccccc3)c2=O)c1,< 3.72
4,Cn1c(=O)ccn(Cc2ccccc2OCC(=O)Nc2ccccc2Cl)c1=O,< 3.85
5,COc1ccccc1NC(=O)Cn1ccc(=O)n(Cc2cc(C)cc(C)c2)c1=O,4.84
6,C=CCn1c(=O)ccn(Cc2ccccc2OCC(=O)Nc2ccccc2Cl)c1=O,< 4.51
7,Cc1cc(C)cc(Cn2c(=O)ccn(CC(=O)Nc3ccccc3)c2=O)c1,5.01
8,Cc1ccccc1NC(=O)COc1ccccc1Cn1ccc(=O)n(C)c1=O,< 3.82
9,Cc1cc(C)cc(Cn2c(=O)ccn(CC(=O)Nc3cccc(Cl)c3)c2=O)c1,4.53
10,Cc1cc(C)cc(Cn2c(=O)ccn(CC(=O)Nc3ccc(Cl)cc3)c2=O)c1,5.14

# Test system: Human immunodeficiency virus 1
# Experiment: Antiviral activity against HIV1 3B expressing reverse transcriptase K103N/Y181C mutant infected in human MT4 cells assessed as inhibition of virus-induced cytopathogenic effect
# Assay type: functional, organism-based
# Settings: not given
row,Compound,inhibition
1,Cc1cc(C)cc(Cn2c(=O)ccn(CC(=O)NCc3ccccc3)c2=O)c1,inactive
2,COc1ccccc1NC(=O)Cn1ccc(=O)n(Cc2cc(C)cc(C)c2)c1=O,inactive
3,Cc1cc(C)cc(Cn2c(=O)ccn(CC(=O)Nc3ccccc3)c2=O)c1,inactive
4,Cc1cc(C)cc(Cn2c(=O)ccn(CC(=O)Nc3cccc(Cl)c3)c2=O)c1,inactive
5,Cc1cc(C)cc(Cn2c(=O)ccn(CC(=O)Nc3ccc(Cl)cc3)c2=O)c1,inactive

# Test system: Human immunodeficiency virus 1
# Experiment: Antiviral activity against HIV1 3B infected in human MT4 cells exposed to MT4 cell CC50 level of compound added after 1 to 25 hrs post virus infection following 1 hr virus adsorption period assessed as inhibition of virus production measured at 31 hrs post infection by p24 ELISA method
# Assay type: functional, organism-based
# Settings: not given
row,Compound,inhibition
1,Cc1cc(C)cc(Cn2c(=O)ccn(CC(=O)NCc3ccccc3)c2=O)c1,inactive
2,COc1ccccc1NC(=O)Cn1ccc(=O)n(Cc2cc(C)cc(C)c2)c1=O,inactive
3,Cc1cc(C)cc(Cn2c(=O)ccn(CC(=O)Nc3ccccc3)c2=O)c1,inactive
4,Cc1cc(C)cc(Cn2c(=O)ccn(CC(=O)Nc3cccc(Cl)c3)c2=O)c1,inactive
5,Cc1cc(C)cc(Cn2c(=O)ccn(CC(=O)Nc3ccc(Cl)cc3)c2=O)c1,inactive

# Test system: Human immunodeficiency virus 1
# Experiment: Antiviral activity against HIV1 3B infected in human MT4 cells exposed to MT4 cell CC50 level of compound added after 1 to 25 hrs post virus infection following 1 hr virus adsorption period assessed as assessed as inhibition of virus-induced cytopathogenic effect
# Assay type: functional, organism-based
# Settings: not given
row,Compound,inhibition
1,Cc1cc(C)cc(Cn2c(=O)ccn(CC(=O)NCc3ccccc3)c2=O)c1,inactive
2,COc1ccccc1NC(=O)Cn1ccc(=O)n(Cc2cc(C)cc(C)c2)c1=O,inactive
3,Cc1cc(C)cc(Cn2c(=O)ccn(CC(=O)Nc3ccccc3)c2=O)c1,inactive
4,Cc1cc(C)cc(Cn2c(=O)ccn(CC(=O)Nc3cccc(Cl)c3)c2=O)c1,inactive
5,Cc1cc(C)cc(Cn2c(=O)ccn(CC(=O)Nc3ccc(Cl)cc3)c2=O)c1,inactive

# Biological target: T1, Human immunodeficiency virus type 1 reverse transcriptase
# Experiment: Inhibition of HIV1 ribonuclease H pre-incubated with compound before enzyme addition using RNA/DNA heteroduplex and measured after 60 mins by picogreen based spectrofluorometry
# Settings: not given
row,Compound,IC50
1,Cc1cc(C)cc(Cn2c(=O)ccn(CC(=O)NCc3ccccc3)c2=O)c1,Not Active
2,COc1ccccc1NC(=O)Cn1ccc(=O)n(Cc2cc(C)cc(C)c2)c1=O,Not Active
3,Cc1cc(C)cc(Cn2c(=O)ccn(CC(=O)Nc3ccccc3)c2=O)c1,Not Active
4,Cc1cc(C)cc(Cn2c(=O)ccn(CC(=O)Nc3cccc(Cl)c3)c2=O)c1,Not Active
5,Cc1cc(C)cc(Cn2c(=O)ccn(CC(=O)Nc3ccc(Cl)cc3)c2=O)c1,Not Active

# Test system: not listed separately
# Experiment: Cytotoxicity against human MT4 cells assessed as reduction in cell viability
# Assay type: cell-based
# Settings: not given
row,Compound,CC50 [µM]
1,O=C1Nc2ccc(Cl)cc2[C@@](C#CC2CC2)(C(F)(F)F)O1 [EFAVIRENZ],> 6
2,Cc1ccnc2c1NC(=O)c1cccnc1N2C1CC1 [NEVIRAPINE],> 15
3,Cn1c(=O)ccn(Cc2ccccc2OCC(=O)Nc2ccccc2)c1=O,153
4,Cn1c(=O)c(F)cn(Cc2ccccc2OCC(=O)Nc2ccccc2Cl)c1=O,30.3
5,Cc1cc(C)cc(Cn2c(=O)ccn(CC(=O)NCc3ccccc3)c2=O)c1,191
6,Cn1c(=O)ccn(Cc2ccccc2OCC(=O)Nc2ccccc2Cl)c1=O,141
7,COc1ccccc1NC(=O)Cn1ccc(=O)n(Cc2cc(C)cc(C)c2)c1=O,227
8,C=CCn1c(=O)ccn(Cc2ccccc2OCC(=O)Nc2ccccc2Cl)c1=O,30.6
9,Cc1cc(C)cc(Cn2c(=O)ccn(CC(=O)Nc3ccccc3)c2=O)c1,242
10,Cc1ccccc1NC(=O)COc1ccccc1Cn1ccc(=O)n(C)c1=O,152
11,Cc1cc(C)cc(Cn2c(=O)ccn(CC(=O)Nc3cccc(Cl)c3)c2=O)c1,167
12,Cc1cc(C)cc(Cn2c(=O)ccn(CC(=O)Nc3ccc(Cl)cc3)c2=O)c1,77.5
